# Experiments:
# Periretinal fibrosis = assay: Clinical observation in periretinal fibrosis; conditions: human, in vivo
# From the text: (§1) The invention will be illustrated further by the description of clinical examples, which of course are not limiting in nature. The medicament was administrated orally, topically in the form of eye drops or by intraocular injection especially intravitreal injection, unless indicated differently.
# 13) Periretinal fibrosis: is reduced after Salbutamol treatment.
# Cataract = assay: Clinical observation in cataract; assay type: in vivo, human; conditions: under salbutamol
# From the text: as §1
# Glaucoma = assay: Clinical observation in glaucoma patients; assay type: in vivo, human; conditions: patients with known glaucoma, pooled (Salbutamol alone or associated)
# Protocol: as §1
# Patients with known glaucoma experienced a decrease in their ocular tension, and an improvement of their visual acuity and visual field once they are treated with Salbutamol or salbutamol associated with one or more of these: N Acetyl DL Leucine, glucose, magnesium, aldosterone receptor antagonist (eplerenone), angiotensin converting enzyme inhibitor (Ramiprilat), β1 blocker and anhydrase carbonic inhibitor.
# [1] = tested on: Age related physiological vision decline; assay: Clinical observation in age related physiological vision decline; assay type: in vivo, human; conditions: many cases, absence of any ocular pathology
# From the text: as §1
# Pigmentosa retinitis = assay: Clinical observation in pigmentosa retinitis patients; assay type: in vivo, human
# From the text: as §1
# Stargardt's disease = assay: Clinical observation in Stargardt's disease patients; assay type: in vivo, human; conditions: 8 patients
# From the text: as §1
# 8 patients treated with Salbutamol noticed an improvement of their visual acuity.
# If we associate to Salbutamol one or more of these: N Acetyl DL Leucine, nitric monoxide donor (vitamin C, vitamin B9), Ramiprilat, and aldosterone receptor antagonist; improvement is noted.
# Vitreous hemorrhage = assay: Clinical observation in vitreous hemorrhage; assay type: in vivo, human; conditions: many cases
# From the text: as §1
# Presbyopia = assay: Clinical observation in presbyopia patients; assay type: in vivo, human; conditions: 08 patients, eye drops
# Protocol: as §1
# (§2) According to particular embodiments where topical administration using eye drops is carried out, the dosages, posologies, administration regimen of the administered active principles are as described in the particular embodiments disclosed in the detailed description, i.e., Salbutamol is administered topically in a concentration of 0.1% (w/v), and/or Ramiprilate is administered topically in a concentration of 2% (w/v), and/or eplerenone is administered topically in a concentration of 1% (w/v), and/or N Acetyl DL Leucine is administered topically in a concentration of 1% (w/v), the active principle(s) being administered once or twice or three times, and up to four times a day, during 1, 2 or 3 months, or more, unless specified differently.
# 08 patients received Salbutamol in the form of eye drops and experimented an improvement of their near vision and a decrease in presbyopia. […] Salbutamol has proven to be an effective treatment of presbyopia.
# Diabetic retinopathy = assay: Clinical observation in diabetic retinopathy patients (visual acuity, OCT); assay type: in vivo, human
# Protocol: as §1, §2
# Currently, one examination technique is very useful in evaluating diabetic; that's optical coherence tomography (O.C.T).
# OCT is very sensitive in evaluating diabetic macular oedema, central macular thickness correlates with visual acuity.
# The response of macular oedema to the administration of one drug such as Salbutamol or a medicament associating Salbutamol, angiotensin converting enzyme inhibitor, antagonist of aldosterone receptor and N Acetyl DL Leucine can be documented accurately by O.C.T imaging.
# Diabetic patients were treated with these medicaments given topically,
# The following study was undertaken on several patients having non-proliferative diabetic; retinopathy or proliferative diabetic retinopathy.
# 20 patients were treated with either Salbutamol or salbutamol associated with one or more of these: ACEI (angiotensin converting enzyme inhibitor), aldosterone receptor antagonist, N Acetyl DL Leucine, magnesium and serrapeptase (eye drops; tablets; intra ocular injection especially intra vitreal injection). […]
# Uveitis = assay: Clinical observation in uveitis cases (visual acuity, OCT); assay type: in vivo, human; conditions: 10 cases of uveitis pooled (salbutamol alone or associated)
# Protocol: as §1, §2
# In 10 cases of uveitis; salbutamol alone or associated with one or more of these: non-steroidal anti inflammatory drugs, angiotensin converting enzyme inhibitors, aldosterone receptors antagonist, β1 blocker, anhydrase carbonic inhibitor, magnesium, corticosteroids and serrapeptase reduced inflammatory disorders. […]
# Dry eye = assay: Clinical observation in dry eye patients; assay type: in vivo, human; conditions: 7 patients, eye drops
# From the text: as §1
# [2] = tested on: Age related macular degeneration; assay: Clinical observation in age related macular degeneration patients (visual acuity, OCT, fluoro-angiography); assay type: in vivo, human
# Protocol: as §1, §2
# The structural information provided by O.C.T is becoming a valuable diagnostic adjunct to fluorescein angiography. OCT is a valuable tool for probing the effect of these treatments.
# 15 patients were treated with salbutamol or salbutamol associated with one or more of these: aldosterone receptor antagonist, ACEI (angiotensin converting enzyme inhibitor), N Acetyl DL Leucine, magnesium and serrapeptase (Eye drops; tablets; intra ocular injection).
# Patient three presented with a history of decreased vision in the right eye. […] Prior to receiving Salbutamol treatment an OCT scan was taken, which is shown in (FIG. 06).
# Then we prescribe topically Salbutamol eye drops 0.1% (w/v), Ramiprilat eye drops 2% (W/v), Eplerenone eye drops 1% (w/v). N Acetyl DL Leucine eye drops 1% (w/v) association three times a day.
# Patient two presented with a six months history of decreased vision in the right eye.
# They were treated with Salbutamol eye drops 0.1% (w/v). Three months later visual acuity improved.
# Corneal oedema = assay: Clinical observation in corneal oedema patients; assay type: in vivo, human; conditions: 10 patients
# From the text: as §1
# Myopia = assay: Clinical observation in myopia patients; assay type: in vivo, human; conditions: 12 myopia patients, eye drops
# Protocol: as §1, §2
# This invention relates to the manufacture of an eye protective medicament, namely Salbutamol via general route or topical route (eye drops) for improving vision.
# 12 patients were evaluated and received salbutamol in the form of eye drops.
# Results: in the addition to the improvement of their visual acuity, the refractive value was reduced. […]
# Keratoconus = assay: Clinical observation in keratoconus patients; assay type: in vivo, human; conditions: 02 keratoconus patients
# From the text: as §1, with “differently. 02 patients received Salbutamol, they noticed an improvement of visual acuity and a reduced irregular astigmatism.” for “differently.”
# Vitreo macular traction = assay: Clinical observation in vitreo macular traction / proliferative diabetic retinopathy (vitreolysis); assay type: in vivo, human
# From the text: as §1
# In many cases of proliferative diabetic retinopathy including fibrovascular proliferation, retinal detachment, vitreo macular traction, the intravitreal injection of Salbutamol led to induction of posterior vitreous detachment, easier peeling and removal of epiretinal fibrotic membrane and internal limiting membrane particularly in macular hole pathology.
# Astigmatism = assay: Clinical observation in astigmatism subjects; assay type: in vivo, human
# From the text: The invention will be illustrated further by the description of clinical examples, which of course are not limiting in nature. The medicament was administrated orally, topically in the form of eye drops or by intraocular injection especially intravitreal injection, unless indicated differently. This invention relates to the manufacture of an eye protective medicament, namely Salbutamol via general route or topical route (eye drops) for improving vision. More particularly, but not exclusively, it relates to eye drops comprising Salbutamol, which are intended for improving (i.e., in the present case decreasing the effects of presbyopia, myopia, hypermetropia and astigmatism) and for stabilizing them or even reversing their evolutive course thereof. The astigmatism subjects noticed an improvement of their refraction and visual acuity.
# [3] = tested on: Allergic conjunctivitis and blepharitis; assay: Clinical observation in allergic conjunctivitis and blepharitis patients; assay type: in vivo, human; conditions: 5 patients, eye drops
# From the text: as §1
# [4] = 20 patients pooled (Salbutamol alone or associated), eye drops, tablets, intra ocular injection
# [5] = 15 patients pooled (salbutamol alone or associated), eye drops, tablets, intra ocular injection
# [6] = patient two, right eye, Salbutamol eye drops 0.1% (w/v), three months later
smiles,measurement,setting,value
CC(C)(C)NCC(O)c1ccc(O)c(CO)c1 (stereo not shown) [Salbutamol],periretinal fibrosis,Periretinal fibrosis,reduced
same,improvement of cataract,Cataract,Some improvement
same,ocular tension,Glaucoma,decrease
same,visual acuity,Glaucoma,improvement
same,visual field,Glaucoma,improvement
same,visual function,[1],improved
same,visual acuity,"Pigmentosa retinitis; 9 patients, all of them",improvement
same,visual field,"Pigmentosa retinitis; 9 patients, all of them",improvement
same,visual function,Pigmentosa retinitis; pigmentosa retinitis,improvement
same,visual acuity,Stargardt's disease,improvement
same,vitreous hemorrhage,Vitreous hemorrhage,decreased
same,near vision,Presbyopia,improvement
same,need to wear a correction of the near vision,Presbyopia,Some of them did not need any longer
same,presbyopia,Presbyopia,decrease
same,retinopathy,Diabetic retinopathy; [4],improves
same,visual acuity,Diabetic retinopathy; [4],improves
same,total macular volume (OCT),"Diabetic retinopathy; patient one, eye drops 0.1% (w/v), two months after treatment",decreased
same,inflammatory disorders,Uveitis,reduced
same,dry eye,Dry eye,improved
same,O.C.T,[2]; [5],improvement
same,visual acuity,[2]; [5],improvement
same,macular thickening,[2]; eye drops given topically instead of intraocular anti VEGF injection,regression
same,successive OCT controls,"[2]; patient three, first round of treatment (Salbutamol)",more improvement but no complete recovery
same,macular thickening,"[2]; patient three, right eye, occult CNV, three months after Salbutamol treatment",incomplete regression
same,macular thickening (OCT),[2]; [6],incomplete regression
same,visual acuity,[2]; [6],improved
same,oedema,Corneal oedema,decreased
same,vision,Corneal oedema,improve
same,refractive value,Myopia,reduced
same,visual acuity,Myopia,improvement
same,irregular astigmatism,Keratoconus,reduced
same,visual acuity,Keratoconus,improvement
same,effect on the retina,Vitreo macular traction; during vitreolysis,without adversely affecting the retina
same,proteolytic activity,"Vitreo macular traction; human, in vivo",seems to have a proteolytic activity
same,vitreolysis,"Vitreo macular traction; human, in vivo",promotes a vitreolysis inducing both synchesis and synerisis
same,posterior vitreous detachment,"Vitreo macular traction; intravitreal injection, many cases of proliferative diabetic retinopathy incl. vitreo macular traction",induction
same,peeling and removal of epiretinal fibrotic membrane and internal limiting membrane,"Vitreo macular traction; intravitreal injection, many cases of proliferative diabetic retinopathy, particularly macular hole pathology",easier
same,refraction,Astigmatism,improvement
same,visual acuity,Astigmatism,improvement
same,allergic conjunctivitis and blepharitis,[3],improved
